The subject of one test is clinically isolated MRSA. In words: Antibacterial potency against clinically isolated MRSA (Test Example 4). The following applies: Staphylococcus aureus, 52 strains of clinically isolated MRSA; for MIC50: concentration inhibiting growth of 50% of the strains (Test Example 4), read-out: MIC50; for MIC90: concentration inhibiting growth of 90% of the strains (Test Example 4), read-out: MIC90. The class given is cell-based, methicillin-resistant Staphylococcus aureus. The procedure:
52 strains of clinically isolated MRSA were used, and MIC was determined for each of the strains according to the standard method of the Japan Chemotherapical Society as in Test Example 1. The minimum growth inhibitory concentration which inhibited growth of 50% of the strains tested was expressed as MIC50 (µg/ml), and the minimum growth inhibitory concentration which inhibited growth of 90% of the strains was expressed as MIC90 (µg/ml).
MIC 50 and MIC 90 were determined for each of the 52 strains of clinically isolated MRSA according to the same method as used in Test Example 2.
VCM (vancomycin) was used as control agent.

The next test relates to E. coli NIHJ JC-2. Put plainly: MIC against standard strains (Test Example 3). It is filed as cell-based. Conditions: Escherichia coli, NIHJJC2; E. coli NIHJ JC-2 (Test Example 3); read-out: MIC. The procedure:
(§1) By using each test strain cultured overnight at 37°C in a Muller-Hinton broth, there was prepared a bacterial solution with a bacterial cell population of 1 x 10^6 CFU/mi of the same bouillon. The bacterial solution was inoculated into the Muller-Hinton agar media each containing respectively one test agent and, after overnight incubation at 37°C, the minimum concentration that inhibited growth of the bacteria was determined and shown as MIC also in Table 1.
(§2) The minimum growth inhibitory concentration was determined for each of the 21 standard strains shown in Table 3, according to the same method as used in Test Example 1.
(§3) In the test, FMOX (flomoxef), CTM (cefotiam) and CEZ (cefazolin) were used as control agents.

The subject of another test is S. epidemidis IAM1296. In words: MIC against standard strains (Test Example 3). It is filed as cell-based. The following applies: S. epidemidis IAM1296 (Test Example 3); read-out: MIC. On the procedure: as §1, §2, §3
Another test concerns K. pneumoniae IFO3317. In words: MIC against standard strains (Test Example 3). Conditions: Klebsiella pneumoniae; K. pneumoniae IFO3317 (Test Example 3); read-out: MIC. The class given is cell-based. On the procedure: as §1, §2, §3
For a further test, the system named is P. vulugaris OX-19. In words: MIC against standard strains (Test Example 3). The class given is cell-based. The following applies: P. vulugaris OX-19 (Test Example 3); read-out: MIC. The procedure:
as §1, §2, §3

The next test deals with A. calcoaceticos T59. In words: MIC against standard strains (Test Example 3). The class given is cell-based. Conditions: A. calcoaceticos T59 (Test Example 3); read-out: MIC. The procedure:
as §1, §2, §3

A further test has as its system S. aureus 167. In words: MIC against standard strains (Test Example 3). Conditions: Staphylococcus aureus; S. aureus 167 (MRSA) (Test Example 3); read-out: MIC. The class given is cell-based. The procedure:
as §1, §2, §3

The next test has as its system P. aeruginosa NCTC10490. Put plainly: MIC against standard strains (Test Example 3). The class given is cell-based. The following applies: Pseudomonas aeruginosa; P. aeruginosa NCTC10490 (Test Example 3); read-out: MIC. The procedure: as §1, §2, §3
Another test has as its system B. subtilis ATCC6633. Put plainly: MIC against standard strains (Test Example 3). Conditions: Bacillus subtilis; B. subtilis ATCC6633 (Test Example 3); read-out: MIC. It is filed as cell-based. On the procedure: as §1, §2, §3
In the next test the test system is E. coli CSH2 (RK1). In words: MIC against standard strains (Test Example 3). The class given is cell-based. The following applies: Escherichia coli. On the procedure: as §1, §2, §3
In the next test the test system is S. marcescens IAM1184. Put plainly: MIC against standard strains (Test Example 3). The class given is cell-based. The following applies: Serratia marcescens; S. marcescens IAM1184 (Test Example 3); read-out: MIC. The procedure: as §1, §2, §3
The test system of another test is S. aureus 209p JC-1. In words: MIC against standard strains (Test Example 3). The class given is cell-based. The following applies: Staphylococcus aureus; S. aureus 209p JC-1 (Test Example 3); read-out: MIC. The procedure:
as §1, §2, §3

For the next test, the system named is M. luteus ATCC 9341. Put plainly: MIC against standard strains (Test Example 3). It is filed as cell-based. Conditions: Micrococcus luteus, ATCC9341; M. luteus ATCC 9341 (Test Example 3); read-out: MIC. On the procedure:
as §1, §2, §3

A further test relates to A. faecalis ATCC3750. In words: MIC against standard strains (Test Example 3). The following applies: Alcaligenes faecalis; A. faecalis ATCC3750 (Test Example 3); read-out: MIC. It is filed as cell-based. On the procedure:
as §1, §2, §3

The next test concerns M. Morganii IFO3848. Put plainly: MIC against standard strains (Test Example 3). The following applies: Morganella morganii; M. Morganii IFO3848 (Test Example 3); read-out: MIC. The class given is cell-based. The procedure: as §1, §2, §3
The test system of another test is K. pneumoniae No. 42. In words: MIC against standard strains (Test Example 3). It is filed as cell-based. The following applies: Klebsiella pneumoniae; K. pneumoniae No. 42 (Test Example 3); read-out: MIC. The procedure:
as §1, §2, §3

The subject of a further test is E. cloacae ATCC13407. Put plainly: MIC against standard strains (Test Example 3). The class given is cell-based. Conditions: Enterobacter cloacae; E. cloacae ATCC13407 (Test Example 3); read-out: MIC. On the procedure: as §1, §2, §3
The subject of the next test is C. freundii ATCC8090. In words: MIC against standard strains (Test Example 3). The class given is cell-based. The following applies: Citrobacter freundii; C. freundii ATCC8090 (Test Example 3); read-out: MIC. The procedure:
as §1, §2, §3

The subject of the next test is S. aureus 195. In words: MIC against standard strains (Test Example 3). The class given is cell-based. Conditions: Staphylococcus aureus; S. aureus 195 (MRSA) (Test Example 3); read-out: MIC. The procedure:
as §1, §2, §3

Another test concerns S. aureus Smith. Put plainly: MIC against standard strains (Test Example 3). The following applies: Staphylococcus aureus; S. aureus Smith (Test Example 3); read-out: MIC. It is filed as cell-based. The procedure: as §1, §2, §3
The next test deals with P. mirabilis IFO3849. In words: MIC against standard strains (Test Example 3). It is filed as cell-based. The following applies: Proteus mirabilis; P. mirabilis IFO3849 (Test Example 3); read-out: MIC. The procedure: as §1, §2, §3
The subject of another test is E. coli CSH2 (RE45). Put plainly: MIC against standard strains (Test Example 3). The class given is cell-based. Conditions: Escherichia coli. The procedure: as §1, §2, §3

One may read the MIC50 as an inhibitory concentration at the 50% level, which refers to growth in some studies and to a panel of isolates in others. By MIC90 is commonly meant the lowest concentration that inhibits either 90% of growth or 90% of the strains tested, depending on the study. For orientation: MIC means the lowest concentration that inhibits growth of the organism. `NC(=O)Cc1ccc[n+](CC2=C(C(=O)[O-])N3C(=O)[C@@H](NC(=O)/C(=N\O)c4csc(N)n4)[C@H]3SC2)c1` [Compound (7), 7β-[2-(2-aminothiazol-4-yl)-2-syn-hydroxyiminoacetamido]-3-[(3-carbamoylmethyl-1-pyridinio)methyl]-3-cephem-4-carboxylic acid chloride]: in the test with clinically isolated MRSA, the MIC50 stood at 2.04 µg/mL. Also, in the test with clinically isolated MRSA, the MIC90 stood at 5.44 µg/mL. Further, the MIC in the test on E. coli NIHJ JC-2 is 0.2 µg/mL; with S. epidemidis IAM1296, 0.1 µg/mL; in the test with K. pneumoniae IFO3317, 0.2 µg/mL; with P. vulugaris OX-19, 0.39 µg/mL; in the test on A. calcoaceticos T59, 3.13 µg/mL; in the test on S. aureus 167 it was 12.5 µg/mL. Besides, the MIC is 1.56 µg/mL in the test on P. aeruginosa NCTC10490; 0.39 µg/mL with B. subtilis ATCC6633; 0.78 µg/mL in the test on E. coli CSH2 (RK1); 0.2 µg/mL in the test with S. marcescens IAM1184; 0.2 µg/mL in the test on S. aureus 209p JC-1; 0.1 µg/mL in the test with M. luteus ATCC 9341. Besides, the MIC amounted to 1.56 µg/mL with A. faecalis ATCC3750; 0.1 µg/mL in the test with M. Morganii IFO3848; 0.39 µg/mL in the test on K. pneumoniae No. 42; 0.39 µg/mL in the test with E. cloacae ATCC13407; 0.2 µg/mL in the test on C. freundii ATCC8090; 3.13 µg/mL in the test on S. aureus 195. Also, the minimum inhibitory concentration (MIC) with S. aureus Smith is 0.39 µg/mL; with P. mirabilis IFO3849, 0.2 µg/mL; against E. coli CSH2 (RE45), 0.2 µg/mL.
As for `CNc1nc(-c2ccc[n+](CC3=C(C(=O)[O-])N4C(=O)[C@@H](NC(=O)/C(=N\O)c5csc(N)n5)[C@H]4SC3)c2)cs1` [Compound (10), 7β-[2-(2-aminothiazol-4-yl)-2-syn-hydroxyiminoacetamido)-3-[[3-(2-methylaminothiazol-4-yl)-1-pyridinio]methyl]-3-cephem-4-carboxylic acid chloride], the MIC50 with clinically isolated MRSA stood at 4.04 µg/mL. Besides, in the test on clinically isolated MRSA, the MIC90 stood at 8.37 µg/mL. Moreover, the MIC with E. coli NIHJ JC-2 was 1.56 µg/mL; in the test on S. epidemidis IAM1296, 0.2 µg/mL; in the test with K. pneumoniae IFO3317, 0.39 µg/mL; in the test with P. vulugaris OX-19, 0.39 µg/mL; in the test on A. calcoaceticos T59, 50 µg/mL; in the test on S. aureus 167, 12.5 µg/mL. The MIC in the test with P. aeruginosa NCTC10490 was determined as 25 µg/mL; in the test on B. subtilis ATCC6633 it was 0.39 µg/mL; against E. coli CSH2 (RK1), 3.13 µg/mL; in the test with S. marcescens IAM1184 it was 3.13 µg/mL; with S. aureus 209p JC-1, 0.39 µg/mL; in the test with M. luteus ATCC 9341, 0.1 µg/mL. The MIC in the test with A. faecalis ATCC3750 came to 6.25 µg/mL; in the test on M. Morganii IFO3848 it was 0.2 µg/mL; in the test on K. pneumoniae No. 42 it was 6.25 µg/mL; in the test on E. cloacae ATCC13407 it was 12.5 µg/mL; in the test on C. freundii ATCC8090, 1.56 µg/mL; with S. aureus 195 it was 3.13 µg/mL. The minimum inhibitory concentration (MIC) in the test with S. aureus Smith was found to be 0.78 µg/mL; in the test on P. mirabilis IFO3849, 3.13 µg/mL; with E. coli CSH2 (RE45), 1.56 µg/mL.
In the case of `CNc1nc(-c2cc[n+](CC3=C(C(=O)[O-])N4C(=O)[C@@H](NC(=O)/C(=N\O)c5csc(N)n5)[C@H]4SC3)cc2)cs1` [Compound (12), 7β-[2-(2-aminothiazol-4-yl)-2-syn-hydroxyiminoacetamido]-3-[[4-(2-methylaminothiazol-4-yl)-1-pyridinio]methyl]-3-cephem-4-carboxylic acid chloride], in the test with clinically isolated MRSA, the MIC50 worked out at 1.86 µg/mL. Moreover, the MIC90 in the test with clinically isolated MRSA was determined as 4.61 µg/mL. Besides, the MIC with E. coli NIHJ JC-2 was 0.2 µg/mL; with S. epidemidis IAM1296, 0.2 µg/mL; in the test with K. pneumoniae IFO3317, 0.1 µg/mL; in the test on P. vulugaris OX-19, 0.1 µg/mL; with A. calcoaceticos T59 it was 50 µg/mL; with S. aureus 167 it was 5.25 µg/mL. Besides, the MIC with P. aeruginosa NCTC10490 was determined as 12.5 µg/mL; with B. subtilis ATCC6633, 0.2 µg/mL; against E. coli CSH2 (RK1), 0.39 µg/mL; in the test with S. marcescens IAM1184, 0.78 µg/mL; with S. aureus 209p JC-1 it was 0.39 µg/mL; in the test with M. luteus ATCC 9341, 0.05 µg/mL. Further, the MIC in the test on A. faecalis ATCC3750 was 1.56 µg/mL; in the test with M. Morganii IFO3848 it was 0.05 µg/mL; in the test on K. pneumoniae No. 42, 0.78 µg/mL; in the test on E. cloacae ATCC13407, 1.56 µg/mL; in the test on C. freundii ATCC8090, 0.39 µg/mL; in the test on S. aureus 195 it was 3.13 µg/mL. Also, the minimal inhibitory concentration (MIC) in the test with S. aureus Smith was 0.39 µg/mL; in the test on P. mirabilis IFO3849, 0.78 µg/mL; against E. coli CSH2 (RE45), 0.2 µg/mL.

Values taken from patent EP0554004A2, “Cephem compounds and antibacterial agents” (KATAYAMA SEIYAKUSYO CO. Ltd., priority 1992, dated 1993).
